Experimental data reported in ChEMBL document CHEMBL1149581, “Colon-specific, mutual azo prodrug of 5-aminosalicylic acid with L-tryptophan: synthesis, kinetic studies and evaluation of its mitigating effect in trinitrobenzenesulfonic acid-induced colitis in rats” (Bioorg Med Chem, 2007).
Activity calls are given as the source filed them. The rule behind the calls is not given here.

Experiments:
[1] = Partition coefficient, log P in n-octanol/phosphate buffer at pH 7.4; format: physicochemical
Rattus norvegicus [2] = assay: Ulcerogenic activity in Wistar rat at 2290 mg/kg, po by cold stress method relative to control; format: toxicity, organism-based; set-up: dose 2290 mg/kg, route oral; details: in vivo
Rattus norvegicus [3] = assay: Ulcerogenic activity in Wistar rat at 3000 mg/kg, po by cold stress method relative to control; format: toxicity, organism-based; set-up: dose 3000 mg/kg, route oral; details: in vivo
Rattus norvegicus [4] = assay: Effect on TNBS-induced experimental colitis in po dosed Sprague-Dawely rat assessed as colon to body weight ratio after 5 days relative to control; format: functional
[5] = Aqueous solubility of the compound; format: physicochemical
Rattus norvegicus [6] = assay: Effect on TNBS-induced experimental colitis in rectally dosed Sprague-Dawely rat assessed as colon to body weight ratio relative to control; format: functional
Rattus norvegicus [7] = assay: Ulcerogenic activity in Wistar rat at 2829 mg/kg, po by cold stress method relative to control; format: toxicity, organism-based; set-up: dose 2829 mg/kg, route oral; details: in vivo
Rattus norvegicus [8] = assay: Decrease in TNBS-induced colonic damage in po dosed Sprague-Dawely rat; format: functional, organism-based

| logD [1] | solubility [5] [mg/mL] | SMILES | UI (Rattus norvegicus [2]) | UI (Rattus norvegicus [3]) | Ratio (Rattus norvegicus [4]) | Ratio (Rattus norvegicus [6]) | UI (Rattus norvegicus [7]) | Activity (Rattus norvegicus [8]) |
| --- | --- | --- | --- | --- | --- | --- | --- | --- |
| 0.64 |  | Nc1ccc(O)c(C(=O)O)c1 [MESALAMINE] | 59.6 |  |  |  |  |  |
|  |  | O=C(O)c1cc(/N=N/c2ccc(S(=O)(=O)Nc3ccccn3)cc2)ccc1O [SULFASALAZINE] |  | 9 | 0.008 |  |  |  |
| 0.26 | 280 | O=C([O-])c1cc(/N=N/C(Cc2c[nH]c3ccccc23)C(=O)[O-])ccc1O.[Na+].[Na+] (centres undefined) |  |  |  | 0.0073 | 13 | Active |
